# Where two headings read alike, the source gives them in different places.
# Legend:
# Assay type in all cases: cell-based
# [1] = system: Escherichia coli JW55031 (TolC mutant); test: MIC broth microdilution, initial screening; conditions: Escherichia coli, read-out: minimum inhibitory concentration (MIC) E. coli (TolC mutant), E. coli JW55031, 18-20 hours
# Description: (§1) The minimum inhibitory concentrations (MICs) of the tested compounds and control drugs (linezolid, vancomycin, gentamicin (antibiotics) and fluconazole and 5-fluorocytosine (5-FC) (antifungal drugs)) were determined using the broth microdilution method, according to guidelines outlined by the Clinical and Laboratory Standards Institute (CLSI, Clinical and Laboratory Standards Institute, Methods for antimicrobial susceptibility testing of anaerobic bacteria; approved standard, M11-A8. 8th ed., 2012; CLSI, Clinical and Laboratory Standards Institute. M27-A3 Reference Method for Broth Dilution Antifungal Susceptibility Testing of Yeasts; Approved Standard—Third Edition, Wayne, Pa., 2008) against clinically-relevant bacterial (methicillin-resistant Staphylococcus aureus (MRSA), Escherichia coli, and C. difficile strains) and fungal (Candida albicans) strains. S. aureus and E. coli were grown aerobically overnight on tryptone soy agar plates at 37° C. C. difficile was grown anaerobically on brain heart infusion supplemented agar at 37° C. for 48 hours. C. albicans was grown aerobically overnight on yeast peptone dextrose (YPD) agar plate at 35° C. Afterwards, a bacterial solution equivalent to 0.5 McFarland standard was prepared and diluted in cation-adjusted Mueller-Hinton broth (CAMHB) (for S. aureus and E. coli) to achieve a bacterial concentration of about 5×10^5 CFU/mL. C. difficile was diluted in brain heart infusion supplemented broth, supplemented with yeast extract, hemin and vitamin K to achieve a bacterial concentration of about 5×10^5 CFU/mL. C. albicans was diluted in Roswell Park Memorial Institute (RPMI 1640) medium with glutamine and without bicarbonate (GIBCO by Life Technologies, Green Island, N.Y., USA) which was buffered to pH 7.0 with 0.165 M of [3-(N-morpholino) propanesulfonic acid] (MOPS) (DOT Scientific Inc., Burton, Mich., USA) to achieve a fungal concentration of about 1.5×10^3 CFU/mL. Compounds and control drugs were added in the first row of the 96-well plates and serially diluted with the corresponding media containing bacteria. Plates were then incubated aerobically at 37° C. for 18-20 hours (for S. aureus and E. coli). C. difficile was incubated anaerobically at 37° C. for 48 hours. C. albicans was incubated aerobically at 37° C. for 24 hours.
# (§2) The minimum inhibitory concentrations (MICs) of the tested compounds and control drugs; linezolid, vancomycin, gentamicin (antibiotics) and fluconazole and 5-fluorocytosine (5-FC) (antifungal drugs) were determined using the broth microdilution method, according to guidelines outlined by the Clinical and Laboratory Standards Institute (CLSI)^1, 2, 3 against clinically-relevant bacterial (methicillin-resistant Staphylococcus aureus (MRSA), Escherichia coli and Clostridium difficile strains) and fungal (Candida albicans) strain. S. aureus and E. coli were grown aerobically overnight on tryptone soy agar plates at 37° C. C. difficile was grown anaerobically on brain heart infusion supplemented agar at 37° C. for 48 hours. C. albicans was grown aerobically overnight on yeast peptone dextrose (YPD) agar plate at 35° C. Afterwards, a bacterial solution equivalent to 0.5 McFarland standard was prepared and diluted in cation-adjusted Mueller-Hinton broth (CAMHB) (for S. aureus and E. coli) to achieve a bacterial concentration of about 5×10^5 CFU/mL. C. difficile was diluted in brain heart infusion supplemented broth, supplemented with yeast extract, hemin and vitamin K to achieve a bacterial concentration of about 5×10^5 CFU/mL. C. albicans was diluted in Roswell Park Memorial Institute (RPMI 1640) medium with glutamine and without bicarbonate (GIBCO by Life Technologies, Green Island, N.Y., USA) which was buffered to pH 7.0 with 0.165 M of [3-(N-morpholino) propanesulfonic acid]
# [2] = system: Escherichia coli BW25113 (wild-type); test: MIC broth microdilution, initial screening; conditions: Escherichia coli, E. coli BW25113, 18-20 hours, read-out: minimum inhibitory concentration (MIC) E. coli (Wild-type)
# Description: as §1, §2
# [3] = system: Methicillin-sensitive Staphylococcus aureus ATCC-6538 (MSSA ATCC-6538); test: MBC by plating from MIC wells; conditions: read-out: MBC MSSA ATCC-6538
# Text: (§3) Based upon the initial results obtained, the active compounds were further screened against additional clinical isolates of methicillin-sensitive S. aureus (MSSA), methicillin-resistant S. aureus (MRSA), vancomycin-resistant S. aureus (VRSA), Staphylococcus epidermidis, vancomycin-resistant Enterococcus faecium (VRE), vancomycin-resistant Enterococcus faecalis (VRE) and Streptococcus pneumoniae, as presented in Table 2. Additionally, we examined whether the compounds were bacteriostatic (inhibit bacteria from growing) or bactericidal (kill bacteria) by determining the minimum bactericidal concentration (MBC). The MBC was determined by plating 5 μL from each well where no growth was present (in the MIC plates) onto tryptic soya agar plates and incubating plates at 37° C. for 24 hours. The MBC was categorized as the lowest concentration that generated a 99.9% reduction in bacterial colony-forming units (Table 3).
# [4] = system: C. albicans (ATCC 64124); test: MIC broth microdilution, initial screening; conditions: Candida albicans, read-out: minimum inhibitory concentration (MIC) C. albicans (ATCC 64124)
# Description: as §1, §2
# [5] = system: Clostridium difficile (ATCC-BAA1870); test: MIC broth microdilution, initial screening; conditions: Clostridioides difficile, ATCCBAA1870, 48 h
# Description: as §1, §2
# [6] = system: Gram-positive bacteria; test: Bacteriostatic or bactericidal by MBC versus MIC; conditions: MBC less than or at least three-fold the MIC
# Text: as §3
# [7] = read-out: minimum inhibitory concentration (MIC) C. difficile (ATCC-BAA1870), anaerobic, 48 hours
Compound,MIC [1],MIC [2],MBC ([3]; 99.9% reduction in CFU),"MIC ([4]; ATCC64124, 24 h)","MIC [5, 7]",bacteriostatic or bactericidal (MBC compared with MIC) [6],"MIC ([4]; ATCC64124, RPMI 1640, 24 hours)","MIC ([5]; anaerobic, 48 hours, read-out: minimum inhibitory concentration (MIC) C. difficile (ATCC-BAA1870))",MIC ([5]; read-out: minimum inhibitory concentration (MIC) C. difficile (ATCC-BAA1870)),MBC [3]
"CC(=O)NC[C@H]1CN(c2ccc(N3CCOCC3)c(F)c2)C(=O)O1 [Linezolid, reference compound]",8 µg/mL,> 64 µg/mL,8 µg/mL,,,,,,,
"O=C(Nc1cccc(Nc2ccc(Cl)nn2)c1)Nc1ccc(Cl)c(Cl)c1 [MY14, 1-(3-((6-chloropyridazin-3-yl)amino)phenyl)-3-(3,4-dichlorophenyl)urea]",2 µg/mL,> 128 µg/mL,32 µg/mL,> 128 µg/mL,,,,,,
"O=C(Nc1ccc(-c2ccc(=O)[nH]n2)cc1)Nc1ccc(Cl)c(Cl)c1 [MY21, 1-(3,4-dichlorophenyl)-3-(4-(6-oxo-1,6-dihydropyridazin-3-yl)phenyl)urea]",,,4 µg/mL,,0.5 to 1 µg/mL,bactericidal,,,,
"O=C(Nc1ccc(Oc2ccc(=O)[nH]n2)cc1)Nc1ccc(Cl)c(Cl)c1 [MY24, 1-(3,4-dichlorophenyl)-3-(4-((6-oxo-1,6-dihydropyridazin-3-yl)oxy)phenyl)urea]",1 µg/mL,> 128 µg/mL,> 64 µg/mL,> 128 µg/mL,0.5 to 1 µg/mL,bacteriostatic,,,,
"O=C(Nc1ccc(Oc2ccc(=O)[nH]n2)cc1)Nc1ccc(Cl)c(C(F)(F)F)c1 [MY31, 1-(4-chloro-3-(trifluoromethyl)phenyl)-3-(4-((6-oxo-1,6-dihydropyridazin-3-yl)oxy)phenyl)urea]",0.5 µg/mL,> 128 µg/mL,> 64 µg/mL,> 128 µg/mL,0.5 to 1 µg/mL,bacteriostatic,,,,
"CNC(=O)c1cc(Oc2ccc(NC(=O)Nc3ccc(Cl)c(C(F)(F)F)c3)cc2)ccn1 [Sorafenib, reference compound]",1 µg/mL,> 128 µg/mL,> 64 µg/mL,,,,> 128 µg/mL,1 µg/mL,,
"CN[C@H](CC(C)C)C(=O)N[C@H]1C(=O)N[C@@H](CC(N)=O)C(=O)N[C@H]2C(=O)N[C@H]3C(=O)N[C@H](C(=O)N[C@H](C(=O)O)c4cc(O)cc(O)c4-c4cc3ccc4O)[C@H](O)c3ccc(c(Cl)c3)Oc3cc2cc(c3O[C@@H]2O[C@H](CO)[C@@H](O)[C@H](O)[C@H]2O[C@H]2C[C@](C)(N)[C@H](O)[C@H](C)O2)Oc2ccc(cc2Cl)[C@H]1O [Vancomycin, reference compound]",,,,,,,,,1 µg/mL,2 µg/mL
